{"source": "patent US9169254B2", "about": "“Spiroimidazolone derivative” (Chugai Seiyaku Kabushiki Kaisha, priority 2009, dated 2015)", "data": [{"molecular_target": "T1, human PTH1 receptor (Homo sapiens, UniProt Q03431)", "T1 sequence (Q03431 27-593)": "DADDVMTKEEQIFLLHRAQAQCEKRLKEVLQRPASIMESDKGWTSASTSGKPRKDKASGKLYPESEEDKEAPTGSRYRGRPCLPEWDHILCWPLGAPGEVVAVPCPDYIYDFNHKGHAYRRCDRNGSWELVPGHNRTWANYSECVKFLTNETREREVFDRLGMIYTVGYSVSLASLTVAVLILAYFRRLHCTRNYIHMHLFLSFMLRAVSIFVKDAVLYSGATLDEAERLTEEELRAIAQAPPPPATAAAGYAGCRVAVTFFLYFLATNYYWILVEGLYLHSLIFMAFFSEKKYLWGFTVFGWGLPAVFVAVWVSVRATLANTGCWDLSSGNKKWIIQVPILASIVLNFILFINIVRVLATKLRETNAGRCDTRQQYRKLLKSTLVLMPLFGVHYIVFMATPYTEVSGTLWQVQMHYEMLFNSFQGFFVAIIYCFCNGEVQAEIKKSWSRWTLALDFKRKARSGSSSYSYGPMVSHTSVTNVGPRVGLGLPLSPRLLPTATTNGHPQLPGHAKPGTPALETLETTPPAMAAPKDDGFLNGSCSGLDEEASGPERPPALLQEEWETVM", "test": "In vitro cAMP signal activity in HKRK-B7 cells (LLC-PK1 cells overexpressing the human PTH1 receptor)", "type": "cell-based", "conditions": "HKRK-B7 cells; compound at 1×10^−3 M; cAMP produced as percentage of that produced by hPTH(1-34) at 100 nM", "units": {"cAMP production activity (%)": "%"}, "values": [{"molecule": "CC(=O)N(C)Cc1cc(C)c(/C=C/S(=O)(=O)N2CCC3(CC2)N=C(C2CCC(C)CC2)NC3=O)c(C)c1", "note": "(stereo not shown) [Compound 517, N-(3,5-dimethyl-4-{(E)-2-[2-(4-methyl-cyclohexyl)-4-oxo-1,3,8-triaza-spiro[4.5]dec-1-ene-8-sulfonyl]-vinyl}-benzyl)-N-methyl-acetamide]", "cAMP production activity (%)": 58}, {"molecule": "CN(C)C(=O)n1ccc2cccc(CCS(=O)(=O)N3CCC4(CC3)N=C(C3CCCCC3)NC4=O)c21", "note": "[Compound 647, 7-[2-(2-cyclohexyl-4-oxo-1,3,8-triaza-spiro[4.5]dec-1-ene-8-sulfonyl)-ethyl]-indole-1-carboxylic acid dimethylamide]", "cAMP production activity (%)": 104}, {"molecule": "Cc1cc(N(C[C@H](O)CO)C(N)=O)cc(C)c1/C=C/S(=O)(=O)N1CCC2(CC1)N=C(C1CCC(C)CC1)NC2=O", "note": "(stereo partly drawn) [Compound 733, 1-((S)-2,3-Dihydroxy-propyl)-1-(3,5-dimethyl-4-{(E)-2-[2-(4-methyl-cyclohexyl)-4-oxo-1,3,8-triaza-spiro[4.5]dec-1-ene-8-sulfonyl]-vinyl}-phenyl)-urea]", "cAMP production activity (%)": 104}, {"molecule": "Cc1cc(S(=O)(=O)NCCN2CCOCC2)ccc1CCS(=O)(=O)N1CCC2(CC1)N=C(c1cccc(C(F)(F)F)c1)NC2=O", "note": "[Compound 292, 3-methyl-N-(2-morpholin-4-yl-ethyl)-4-{2-[4-oxo-2-(3-trifluoromethyl-phenyl)-1,3,8-triaza-spiro[4.5]dec-1-ene-8-sulfonyl]-ethyl}-benzenesulfonamide]", "cAMP production activity (%)": 58}, {"molecule": "Cc1cc(C(=O)N2CCC(C)(O)CC2)cc(C)c1/C=C/S(=O)(=O)N1CCC2(CC1)N=C(c1ccc(S(F)(F)(F)(F)F)cc1)NC2=O", "note": "[Compound 1189, 8-{(E)-2-[4-(4-hydroxy-4-methyl-piperidine-1-carbonyl)-2,6-dimethyl-phenyl]-ethenesulfonyl}-2-(4-pentafluorosulfanyl-phenyl)-1,3,8-triaza-spiro[4.5]dec-1-en-4-one]", "cAMP production activity (%)": 104}, {"molecule": "Cc1ccc(OCCC(O)CO)cc1CCS(=O)(=O)N1CCC2(CC1)N=C(c1cccc(OC(F)(F)F)c1)NC2=O", "note": "(stereo not shown) [Compound 267, 8-{2-[5-(3,4-dihydroxy-butoxy)-2-methyl-phenyl]-ethanesulfonyl}-2-(3-trifluoromethoxy-phenyl)-1,3,8-triaza-spiro[4.5]dec-1-en-4-one]", "cAMP production activity (%)": 42}, {"molecule": "Cc1cc(N(C)C(N)=O)cc(C)c1CCS(=O)(=O)N1CCC2(CC1)N=C([C@@H]1C[C@H](C)C[C@H](C)C1)NC2=O", "note": "[Compound 1040, 1-(4-{2-[2-((1S,3S,5R)-3,5-dimethyl-cyclohexyl)-4-oxo-1,3,8-triaza-spiro[4.5]dec-1-ene-8-sulfonyl]-ethyl}-3,5-dimethyl-phenyl)-1-methyl-urea]", "cAMP production activity (%)": 111}, {"molecule": "CC(=O)OC[C@H](CN(C(C)=O)c1ccc(CCS(=O)(=O)N2CCC3(CC2)N=C(c2ccc(OC(F)(F)F)cc2)NC3=O)c(C)c1)OC(C)=O", "note": "[Compound 152, acetic acid (S)-1-acetoxymethyl-2-[acetyl-(3-methyl-4-{2-[4-oxo-2-(4-trifluoromethoxy-phenyl)-1,3,8-triaza-spiro[4.5]dec-1-ene-8-sulfonyl]-ethyl}-phenyl)-amino]-ethyl ester]", "cAMP production activity (%)": 47}, {"molecule": "Cc1cc(C(=O)N2CCC(C)(O)CC2)cc(C)c1/C=C/[S@TB4](=O)(=O)N1CCC2(CC1)N=C(c1ccc(OC(F)(F)F)c(F)c1)NC2=O", "note": "[Compound 1094, 2-(3-fluoro-4-trifluoromethoxy-phenyl)-8-{(E)-2-[4-(4-hydroxy-4-methyl-piperidine-1-carbonyl)-2,6-dimethyl-phenyl]-ethenesulfonyl}-1,3,8-triaza-spiro[4.5]dec-1-en-4-one]", "cAMP production activity (%)": 100}, {"molecule": "Cc1cc(CN2CCCC2=O)cc(C)c1/C=C/S(=O)(=O)N1CCC2(CC1)N=C(C1CCC(CCC(F)(F)F)CC1)NC2=O", "note": "(stereo not shown) [Compound 556, 8-{(E)-2-[2,6-dimethyl-4-(2-oxo-pyrrolidin-1-ylmethyl)-phenyl]-ethenesulfonyl}-2-[4-(3,3,3-trifluoro-propyl)-cyclohexyl]-1,3,8-triaza-spiro[4.5]dec-1-en-4-one]", "cAMP production activity (%)": 19}, {"molecule": "Cc1cc(N(C)C(N)=O)cc(C)c1CCS(=O)(=O)N1CCC2(CC1)N=C(c1ccc3c(c1)OC(F)(F)O3)NC2=O", "note": "[Compound 1029, 1-(4-{2-[2-(2,2-difluoro-benzo[1,3]dioxol-5-yl)-4-oxo-1,3,8-triaza-spiro[4.5]dec-1-ene-8-sulfonyl]-ethyl}-3,5-dimethyl-phenyl)-1-methyl-urea]", "cAMP production activity (%)": 104}, {"molecule": "Cc1cc(N(C)C(N)=O)cc(C)c1CC[S@TB3](=O)(=O)N1CCC2(CC1)N=C(c1cccc(CCC(C)C)c1)NC2=O", "note": "[Compound 1144, 1-[3,5-dimethyl-4-(2-{2-[3-(3-methyl-butyl)-phenyl]-4-oxo-1,3,8-triaza-spiro[4.5]dec-1-ene-8-sulfonyl}-ethyl)-phenyl]-1-methyl-urea]", "cAMP production activity (%)": 124}, {"molecule": "O=C(/C=C/c1ccccc1)N1CCCC(C2=NC3(CCN(S(=O)(=O)CCc4cccc5ccccc45)CC3)C(=O)N2)C1", "note": "(stereo not shown) [Compound 441, 8-(2-Naphthalen-1-yl-ethanesulfonyl)-2-{1-[(E)-(3-phenyl-acryloyl)]-piperidin-3-yl}-1,3,8-triaza-spiro[4.5]dec-1-en-4-one]", "cAMP production activity (%)": 24}, {"molecule": "O=C1NC(C2CCCCC2)=NC12CCN(S(=O)(=O)CCc1cccc3[nH]ccc13)CC2", "note": "[Compound 303, 2-Cyclohexyl-8-[2-(1H-indol-4-yl)-ethanesulfonyl]-1,3,8-triaza-spiro[4.5]dec-1-en-4-one]", "cAMP production activity (%)": 76}, {"molecule": "CC(=O)Nc1ccc(CCS(=O)(=O)N2CCC3(CC2)N=C(Nc2cccc(C(F)(F)F)c2)NC3=O)c(C)c1", "note": "[Compound 1402, N-(3-methyl-4-{2-[4-oxo-2-(3-trifluoromethyl-phenylamino)-1,3,8-triaza-spiro[4.5]dec-1-ene-8-sulfonyl]-ethyl}-phenyl)-acetamide]", "cAMP production activity (%)": 69}, {"molecule": "O=C(O)Cn1ccc2c(/C=C/S(=O)(=O)N3CCC4(CC3)N=C(C3CCCCC3)NC4=O)cccc21", "note": "[Compound 1168, {4-[(E)-2-(2-Cyclohexyl-4-oxo-1,3,8-triaza-spiro[4.5]dec-1-ene-8-sulfonyl)-vinyl]-indol-1-yl}-acetic acid]", "cAMP production activity (%)": 27}, {"molecule": "Cc1cc(C(=O)N(C)C)ccc1CCS(=O)(=O)N1CCC2(CC1)N=C(C(C)(C)C)NC2=O", "note": "[Compound 74, 4-[2-(2-tert-butyl-4-oxo-1,3,8-triaza-spiro[4.5]dec-1-ene-8-sulfonyl)-ethyl]-3,N,N-trimethyl-benzamide]", "cAMP production activity (%)": 48}, {"molecule": "Cc1cc(N2C(=O)NC(C)C2=O)cc(C)c1CCS(=O)(=O)N1CCC2(CC1)N=C(C1CCC(C)CC1)NC2=O", "note": "(stereo not shown) [Compound 767, 3-(3,5-dimethyl-4-{2-[2-(4-methyl-cyclohexyl)-4-oxo-1,3,8-triaza-spiro[4.5]dec-1-ene-8-sulfonyl]-ethyl}-phenyl)-5-methyl-imidazolidine-2,4-dione]", "cAMP production activity (%)": 83}, {"molecule": "Cc1cc(N2C(=O)CC[C@@H]2COCCO)cc(C)c1/C=C/S(=O)(=O)N1CCC2(CC1)N=C(C1CCCCC1)NC2=O", "note": "[Compound 710, 2-cyclohexyl-8-((E)-2-{4-[(R)-2-(2-hydroxy-ethoxymethyl)-5-oxo-pyrrolidin-1-yl]-2,6-dimethyl-phenyl}-ethenesulfonyl)-1,3,8-triaza-spiro[4.5]dec-1-en-4-one]", "cAMP production activity (%)": 76}]}]}
